This passage reports melting point results from a melting point compilation (Tetko et al.; mined from patent text by program, amines drawn as free bases though some values may be those of a salt).

Each structure is given as a SMILES string.

The melting point is the temperature, or range, at which the solid turns liquid. Compound `Cc1ccc(-c2cccn2-c2ccc(S(N)(=O)=O)cc2)cc1` had a melting point of 183 to 184 °C.
On to `CC(C)C[C@H](NC(=O)[C@H](Cc1ccccc1)NCC(S)C(N)Cc1ccccc1)C(=O)O` (stereo not given in full), for which the melting point was in the range of 123 to 160 °C.
Then `O=C(O)c1cn(C2CC2)c2cc(N3CCNC(c4cc5ccccc5o4)C3)c(F)cc2c1=O` (stereo not given), with 203 to 206 °C.
Then `CCCSc1ncc(CC(Cc2ccccc2)C(=O)O)n1Cc1ccccc1Cl` (stereo not given), with 123 to 127 °C; and `COCCOc1ccc(Sc2c(O)c3c(=O)n(-c4ccccc4)c4ccccc4c3oc2=O)cc1`, with 144 to 146 °C.
Then `CSc1cc2c(cc1C(F)(F)F)N(C(=O)Nc1cccc(C(=O)CCCN(C)C)c1)CC2`, with 178 to 180 °C; and `CC(C)n1nc(-c2ccc(O)cc2)c2sccc2c1=O`, with 256 to 257 °C; and `COc1ccc2c(c1)cc(-c1nnn(Cc3cccc(OCc4ccc5ccccc5n4)c3)n1)c(=O)n2CCCCl`, with 150 to 152 °C.
`Nc1ccc(Sc2ccccc2)cc1C(F)(F)F`: the melting point is 63 to 66.5 °C.
Then `COc1ccc(C(=O)Nc2ccc3ccc(C)nc3n2)cc1`, with 119 °C; and `CC(=O)C=Cc1ccc(O)cc1`, with 104 to 105 °C.
Turning to `Cc1nc2n(c(=O)c1CCN1CCC(C(=O)c3ccc(F)cc3)CC1)CCCS2`, the melting point was determined as 165 °C.
For `Cc1[nH]c2ccccc2c1/C=C/C(=O)c1ccncc1` the value was 268 to 272 °C; for `ONc1cc(Cl)ccc1Cl`, 124 °C; for `COCc1cc(Cl)cc2c1OC(C(F)(F)F)C(C(=O)O)=C2` (stereo not given), 167 to 168 °C.
For `O=c1ccn(-c2ccccc2OC(F)F)nc1-c1ccnn1-c1ccccc1` the value was 123 to 124 °C; for `O=c1oc(-c2ccc(C#Cc3ccccc3)cc2)cc(O)c1SCCc1ccccc1`, 181 to 182 °C.
Then `COc1cc(C(=O)N[C@@H]2c3cc(OC(F)(F)F)ccc3OC(C)(C)[C@H]2O)c([N+](=O)[O-])cc1OC`, with 97 °C; and `CC1(C)OC(=O)Nc2ccc(-c3ccc(C#N)o3)cc21`, with 257 to 260 °C.
The compound `CN(Nc1ccccc1COc1ccn(-c2ccc(Cl)cc2)n1)C(N)=O` had a melting point of 152 to 154 °C.
Regarding `NS(=O)(=O)Oc1cccc([N+](=O)[O-])c1`, the melting point is 118 to 120 °C.
`O=c1[nH]c2cc([N+](=O)[O-])c3c(c2[nH]c1=O)CN(C(=S)Nc1ccccc1)CC3` came in with a melting point of 270 to 274 °C.
Turning to `CC(=O)Nc1ccccc1S(=O)(=O)NCCCCN1CCN(c2ncccn2)CC1`, the melting point worked out at 99 °C.
For `Cc1c(SCc2ccco2)ccnc1CSc1nc2ccccc2[nH]1` the value was 188 to 189 °C; for `CN(C(=NC#N)Nc1cccnc1)C(NC(=O)c1ccc(Cl)cc1)C(C)(C)C` (stereo not given), 127 to 129 °C.
For `Cc1cccc(Nc2n[nH]c(N=CN(C)C)c2C#N)c1` the value was 260 to 261 °C; for `N#Cc1c(N2CCN(C(=O)c3cccs3)CC2)c2cscc2n(CC(=O)c2ccccc2)c1=O`, 308 °C.
Then `CC(Oc1ccc(Oc2ccccc2)cc1)(C(=O)O)C(F)(F)F` (stereo not given), with 111 to 112 °C.
On to `COc1cc2c(c(Cl)c1Cl)C(=O)CCC2`, for which the melting point worked out at 132 °C.
As for `COC(=O)c1coc2c1C(=O)CCC2`, the melting point fell in the range of 100 to 102 °C.
`CCOC(=O)C1CCN(C(=O)CN2CCN(c3ccncc3)CC2)CC1` came in with a melting point of 102 to 104 °C.
Then `O=C(Nc1c[nH]nc1C(=O)NCc1ccco1)c1ccccn1`, with 198 to 199 °C; and `Cc1cc(O)c(C(=O)CCC(=O)O)cc1Cl`, with 181 to 182 °C; and `O=C(O)CCSC(SCCC(=O)O)c1cccc(CCc2ccc3ccc(Cl)cc3n2)c1`, with 160 to 161 °C.
As to `CC(C)(C)OC(=O)Nc1cc(N2CCC(OCCOC3CCCCO3)CC2)c(-c2ccc(F)cc2)cc1N` (racemic), the melting point was in the range of 56 to 58 °C.
